From PMC12129716, “Isolation of a Unique Monoterpene Diperoxy Dimer From Ziziphora clinopodioides subsp. bungeana Together With Triterpenes With Antidiabetic Properties” (Phytochemical Analysis, 2025)
Entries after “also recorded” stand apart in the source; their conditions may differ. Where two headings read alike, the source gives them in different places.

Legend:
[1] = system: α‐glucosidase; experiment: α-Glucosidase inhibitory assay (p-nitrophenyl-α-D-glucopyranoside, microplate reader); assay type: biochemical; conditions: mean ± SEM, three independent experiments in triplicate
Protocol: After incubation (15 min, 37°C), the reaction was initiated by adding 20 μL of 2.5‐mM p‐nitrophenyl‐α‐D‐glucopyranoside. After an additional 15 min at 37°C, the reaction was stopped with 80 μL of 0.2‐M Na2CO3. The released p‐nitrophenol was quantified spectrophotometrically at λ 405 nm using a microplate reader. One set of mixtures prepared with an equivalent volume of methanol instead of the test samples was used as a control. Another set of mixtures prepared with an equivalent volume of phosphate buffer instead of the enzyme was used as a blank. The inhibition of the enzyme (%) was calculated according to the formula: […]. […] The results are summarized in Table 2 and expressed as the mean ± SEM for three independent experiments measured in triplicate.

[2] = system: GLUT4; experiment: GLUT4 translocation to plasma membrane fraction in C2C12 myotubes (Western blot); assay type: cell-based, mouse; conditions: 5 μM, 24 h, C2C12 differentiated myotubes, vs DMSO control
Protocol: The C2C12 cell line was incubated in containers with a surface area of 75 cm^2 (tissue‐culture treated) to 100% confluence in full serum DMEM High Glucose medium. Then the culture medium was changed to DMEM High Glucose medium, supplemented with antibiotics, and 2% horse serum (Biosera) to start the differentiation of myoblasts into myocytes. The medium was renewed every 2 days, and the formation of myocytes was observed using a microscope. After 6 days of differentiation, the culture medium was changed to DMEM High Glucose serum‐free medium, and the test compounds were added at a non‐toxic concentration of 5 μM dissolved in DMSO. The effect of the test compounds on the viability of C2C12 myocytes was determined using a WST‐1 kit (Roche, Basel, Switzerland), according to the manufacturer's manual. The final concentration of DMSO in the medium was 0.1% (v/v). […]
The effects of the test compounds on the protein expression of GLUT4 in the total cellular fraction and on GLUT4 translocation to the plasma membrane fraction were measured using PAGE and Western blot with specific antibodies. […]
To quantify the effects of the test compounds on GLUT4 expression and translocation, the optical densities (OD) of the corresponding bands shown by Western blot analysis were calculated and expressed as a ratio of ODGLUT4 / ODβ‐actin for GLUT4 expression in whole‐cell lysates. […]

[3] = molecular target: protein tyrosine phosphatase 1B (PTP1B); conditions: cited from earlier work
[4] = system: α‐glucosidase; conditions: cited from earlier work
[5] = system: L6 myotube cells; parameters: method as in PMID 19548274; conditions: cited from earlier work
[6] = system: GLUT4; parameters: method as in PMID 17201692; conditions: 3T3-L1 adipocytes; cited from earlier work

Structure (SMILES) | % of inhibition (200 μM) [1] [%] | IC50 [1] [µM] | further results
C=C(C)[C@@H]1CC[C@]2(C(=O)O)CC[C@]3(C)[C@H](CC[C@@H]4[C@@]5(C)CC[C@H](O)C(C)(C)[C@@H]5CC[C@]43C)[C@@H]12 [Compound 11, betulinic acid] | 64.4 ± 2.0 | 45.3 ± 1 | GLUT4 translocation (GLUT4/ATPA1 ratio in plasma membrane fraction) [2]: no activity; PTP1B IC50 [3]: 0.7 ± 0.03 µg/mL; IC50 ([3]; conversion of the μg/mL value, read-out: PTP1B IC50 (converted to μM)): 1.53 µM
CC1(C)CC[C@]2(C(=O)O)CC[C@]3(C)C(=CC(=O)C4[C@@]5(C)CC[C@H](O)C(C)(C)C5CC[C@]43C)C2C1 (some centres unmarked) [Compound 8, 11‐oxooleanolic acid] | 49.9 ± 3.3 | > 200 | –
CC1(C)CC[C@]2(C(=O)O)CC[C@]3(C)C(=CC[C@@H]4[C@@]5(C)CC[C@H](O)C(C)(C)[C@@H]5CC[C@]43C)[C@@H]2C1 [Compound 10, oleanolic acid] | 67.5 ± 1.4 | – | –
CC1(C)[C@@H](O)CC[C@]2(C)[C@H]3C(=O)C=C4[C@@H]5C[C@@](C)(C(=O)O)CC[C@]5(C)CC[C@@]4(C)[C@]3(C)CC[C@@H]12 [glycyrrhetic acid] | – | – | α-Glucosidase inhibitory activity [4]: inactive
CC1CC=C(C(C)(C)OOC23CC(C)CC=C2C(C)(C)OO3)C(=O)C1 (centres unmarked) [Compound 1, ziziphora diperoxy dimer] | 6.0 ± 1.9 | > 200 | –
C=C(CO)[C@@H]1CC[C@]2(C(=O)O)CC[C@]3(C)C(CCC4[C@@]5(C)CC[C@H](O)C(C)(C)C5CC[C@]43C)C12 (some centres unmarked) [Compound 4, 30‐hydroxybetulinic acid] | 34.0 ± 4.9 | > 200 | –
C[C@@H]1CC[C@]2(C(=O)O)CC[C@]3(C)C(=CC(=O)C4[C@@]5(C)CC[C@H](O)C(C)(C)C5CC[C@]43C)C2[C@H]1C (some centres unmarked) [Compound 7, 11‐oxoursolic acid] | – | 163 ± 15.4 | –
C[C@@H]1[C@H](O)C[C@]2(C(=O)O)CC[C@]3(C)C(=CCC4[C@@]5(C)CC[C@H](O)C(C)(C)C5CC[C@]43C)C2[C@H]1C (stereo partly drawn) [Compound 6, 21α‐hydroxyursolic acid] | 26.8 ± 2.1 | > 200 | –
C=C(C)[C@@H]1CC[C@]2(CO)CC[C@]3(C)[C@H](CC[C@@H]4[C@@]5(C)CC[C@H](O)C(C)(C)[C@@H]5CC[C@]43C)[C@@H]12 [Compound 3, betulin] | 24.0 ± 6.0 | > 200 | –
CC1=C2C=C3CCC4C(C)(C)CCC[C@@]4(C)C3CC2OC1=O (some centres unmarked) [Compound 2, jolkinolide E] | 25.0 ± 1.4 | > 200 | –
C[C@H]1[C@H](C)CC[C@]2(C(=O)O)CC[C@]3(C)C(=CC[C@@H]4[C@@]5(C)CC[C@H](O)C(C)(C)[C@@H]5CC[C@]43C)[C@H]12 [Compound 9, ursolic acid] | 65.7 ± 4.1 | – | 2-deoxy-D-[3H]-glucose uptake increase [5]: 1.84 fold; Translocation of GLUT4 [6]: enhanced; IC50 ([3]; read-out: PTP1B IC50): 3.1 ± 0.2 µM
C[C@@H]1CC[C@]2(C(=O)O)CC[C@]3(C)C(=CC[C@@H]4[C@@]5(C)CC[C@H](O)C(C)(C)[C@@H]5CC[C@]43C)[C@@H]2[C@]1(C)O [Compound 5, pomolic acid] | 41.9 ± 4.1 | > 200 | 2-deoxy-D-[3H]-glucose uptake increase [5]: 1.6 fold; GLUT4 translocation (GLUT4/ATPA1 ratio in plasma membrane fraction) [2]: increased; also recorded: tripling; IC50 ([3]; read-out: PTP1B IC50): 3.9 ± 0.8 µM
